Molecular target: T1, 17-beta-hydroxysteroid dehydrogenase 13 (Homo sapiens, UniProt Q7Z5P4)
T1 sequence (Q7Z5P4 whole entry): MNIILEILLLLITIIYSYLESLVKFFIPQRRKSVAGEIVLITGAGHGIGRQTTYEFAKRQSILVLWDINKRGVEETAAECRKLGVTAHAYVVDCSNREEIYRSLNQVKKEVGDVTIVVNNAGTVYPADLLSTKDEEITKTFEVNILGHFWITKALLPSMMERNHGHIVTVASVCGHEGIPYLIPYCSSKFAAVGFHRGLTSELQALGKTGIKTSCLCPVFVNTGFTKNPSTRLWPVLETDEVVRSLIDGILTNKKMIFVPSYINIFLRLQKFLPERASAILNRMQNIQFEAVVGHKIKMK
Test: 17β-HSD13 Rapid-Fire Mass Spectrometry Assay
From the text: Recombinant human 17β-HSD13 was expressed and purified from sf9 cells at Charles River Labs (Saffron Walden, UK). Leukotriene B4 (Catalog #71160-24-2) and 12-oxoleukotriene B4 (Catalog #20140) were purchased from Cayman Chemicals (Ann Arbor, MI). NAD+ (Catalog #N8285), BSA (Catalog #A7030), DMSO (Catalog #D2650), and Tween-20 (Catalog #11332465001) were purchased from Sigma (St. Louis, MO). Formic acid (Catalog #28905) was from ThermoFisher Scientific and 384 deep well PP microplates (Catalog #784261) were from Greiner Bio-One. In a typical IC50 assay performed in a 384w PP microplate, test compounds (0-100 μM) were incubated with HSD17B13 (80 nM), LTB4 (10 μM), and NAD+ (0.5 mM) in 10 μL assay buffer (20 mM Tris (pH 7.5), BSA (0.005%), and Tween-20 (0.01%)) at RT for 3 h. The assays were quenched by adding 20 μL of 0.15% aqueous formic acid and the plates were frozen at −80° C. RF/MS analysis was performed at PureHoney Technologies (Billerica, MA) on a RapidFire RF300 system (Agilent Technologies, Inc.) coupled to an API 4000 triple quadrupole mass spectrometer (Sciex) equipped with Agilent RapidFire cartridge type A (C4). […] Leukotriene B4 (335.3) and 12-oxoLeukotriene B4 (333.3) SRM transitions were optimized with Discovery Quant software and extracted ion counts for these analytes were determined.

- IC50: < 100 nM
SMILES: COc1ccc(-c2nc3sc4c(O)cccc4c3c(=O)n2CCNCc2cnc[nH]2)c(C2CC2)c1 [US20230416268, Example 31]

From BindingDB's records for patent US20230416268 (Enanta Pharmaceuticals, 2023)
